Results reported in patent publication EP3822285A1, “VARIANT NISIN PEPTIDES” (University College Cork-National University of Ireland, Cork, priority 2019, dated 2021).
Values after ≈ are worked out from the molar mass of the structure shown. Marks after values point to notes of the source that are not given here.

How the values were obtained:
Assay type in all cases: cell-based
T. aquaticus = assay: Minimum inhibitory concentration assay (Thermus); details: pure peptide, mean of triplicate assays
Method in brief: (§1)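 Purified peptides were tested in triplicate in BSA-pretreated wells containing Castenholz medium, at a final inoculum of ~10^5 cfu/ml. Plates were incubated 3 days at 55 °C, and MIC was taken as the lowest concentration with no visible growth.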

T. brockianus = assay: Minimum inhibitory concentration assay (Thermus); details: pure peptide, mean of triplicate assays
Method in brief: as §1

T. oshimai = assay: Minimum inhibitory concentration assay (Thermus); details: pure peptide, mean of triplicate assays
Method in brief: as §1

T. rehai = assay: Minimum inhibitory concentration assay (Thermus); details: pure peptide, mean of triplicate assays
Method in brief: as §1

T. scotoductus SE-1 = assay: Minimum inhibitory concentration assay (Thermus); details: pure peptide, mean of triplicate assays
Method in brief: as §1

T. thermophilus HB27 = assay: Minimum inhibitory concentration assay (Thermus); details: pure peptide, mean of triplicate assays
Method in brief: as §1

Thermus scotoductus SE-1 = assay: Agar diffusion assay with cell free supernatant of producing strains; details: zone diameter relative to Nisin A wild type (100)
Method in brief: (§2)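 Cell-free supernatant (50 µl) from overnight nisin A or variant-producing L. lactis cultures placed in wells of Castenholz agar seeded with indicator strain. Plates incubated 55°C for 3 days; zone of clearance measured, reflecting combined peptide yield and specific activity; triplicate.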

[1] = test system: Thermus thermophilus HB27; assay: as above; details: zone diameter relative to Nisin A wild type (100)
Method in brief: as §2

L. lactis HP = assay: Deferred antagonism assay; details: producing strain
Protocol: (§3) Mutagenesis of the nisA gene was carried out as described previously (Field et al., 2008). Briefly, saturation mutagenesis was carried out using pDF05 (pCI372-nisA) as template and using oligonucleotides containing an NNK codon in place of each native codon. PCR amplification was performed in a 50 µl reaction containing approximately 0.5 ng of target DNA (pDF05), 1 unit Phusion High-Fidelity DNA polymerase (Finnzymes, Finland), 1 mM dNTPs and 500 ng each of the appropriate forward and reverse oligonucleotide. The reaction was pre-heated at 98°C for 2 min, and then incubated for 29 cycles at 98°C for 30 s, 55°C for 15 s and 72°C for 3 min 30 s, and then finished by incubating at 72°C for 3 min 30 s. Amplified products were treated with Dpn1 (Stratagene) for 60 min at 37°C to digest template DNA and purified using the QIAquick PCR purification kit. Following transformation of E. coli Top 10 cells plasmid DNA was isolated and sequenced using primers pCI372FOR (5' […] 3') and pCI372REV (5' […] 3') to verify that mutagenesis had taken place. Approximately 150 transformants were chosen at random for each position and inoculated into 96-well plates containing GM17 chloramphenicol, incubated overnight and stored at -20°C after addition of 80% glycerol. Deferred antagonism assays were performed by replicating strains on GM17 agar plates and allowing them to grow overnight before overlaying with BHI agar (0.75% w/v agar) seeded with the appropriate indicator strain.
(§4) Previously, site-saturation mutagenesis-based strategies were used to generate strains producing bioengineered nisin derivatives in which all residues not involved in lanthionine ring formation (i.e. I1, T2, 14, S5, L6, P9, G10, K12, G14, A15, L16, M17, G18, N20, M21, K22, A24, H27, S29 130, H31, V32, S33 and K34) were each randomised to potentially all other natural amino acids, or whereby all three residues of the hinge-region (NMK) were randomised simultaneously (Rouse et al., 2012, Healy et al., 2013, Field et al., 2008). […] From this screen 76 variants of interest from the first round of screening were incorporated into a "mini-bank" for subsequent further analysis. The number of indicator strains was increased from five to thirteen to include S. uberis 43382, S. uberis DPC5344, S. dysgalactiae ATCC43078, L. lactis 303, L. cremoris KH, Lactobacillus bulgaricus NCDO2489, Lb. helveticus 2079 and Lb. acidophilus ATCC4356 (Table 1). Following this second round of screening, 6 variants of interest were deemed worthy of closer inspection. DNA sequencing of the mutated nisin gene as well as mass spectrometric analysis of the peptide produced by each strain established that these corresponded to nisin M17Q (methionine at position 17 altered to glutamine), nisin T2L (threonine 2 leucine) nisin HTK, VGA, VGV or VGT (where the hinge residues Asn-Met-Lys have been altered to His-Thr-Lys, Val-Gly-Ala, Val-Gly-Val or Val-Gly-Thr respectively). […] As a result, these derivatives were eliminated from this study, but will be the subject of further investigation as potential anti-mastitis antimicrobials. […] In the case of the derivatives nisin T2L and nisin HTK, the activity appeared reduced and equivalent to nisin A respectively (Figure 1), while improved activity was observed by both derivatives against S. agalactiae ATCC13813 and S. aureus RF122 (Table 2). On this basis, the nisin derivatives M17Q, T2L and HTK were selected for purification and specific activity assays. Purified peptides were subjected to Mass Spectrometry to confirm the correct mass in each case. In the case of T2L and HTK derivatives, the threonine remained in the unmodified form (data not shown).

S. aureus RF122 = assay: Deferred antagonism assay; details: producing strain
Protocol: as §3, §4

L. lactis MG1363 = assay: Deferred antagonism assay; details: producing strain
Protocol: as §3, §4

S. agalactiae ATCC13813 = assay: Deferred antagonism assay; details: producing strain
Protocol: as §3, §4

Q: `C=C(NC(=O)[C@@H](NC(=O)[C@H](Cc1c[nH]cn1)NC(=O)[C@@H](NC(=O)[C@H](CO)NC(=O)[C@@H]1CS[C@@H](C)[C@H]2NC(=O)[C@H](C)NC(=O)[C@H](NC(=O)[C@H](C)NC(=O)CNC(=O)[C@@H](NC(=O)[C@@H]3CS[C@@H](C)[C@@H](NC(=O)[C@H](CCCCN)NC(=O)[C@@H]4CS[C@@H](C)[C@@H](NC(=O)[C@@H]5CSC[C@@H](NC(=O)/C(=C/C)NC(=O)[C@@H](N)[C@@H](C)CC)C(=O)N[C@@H]([C@@H](C)CC)C(=O)NC(=C)C(=O)N[C@@H](CC(C)C)C(=O)N5)C(=O)N5CCC[C@H]5C(=O)NCC(=O)N4)C(=O)NCC(=O)N[C@@H](C)C(=O)N[C@@H](CC(C)C)C(=O)N[C@@H](CCSC)C(=O)NCC(=O)N3)C(C)C)[C@H](C)SC[C@H](NC2=O)C(=O)N[C@@H](Cc2c[nH]cn2)C(=O)N1)[C@@H](C)CC)C(C)C)C(=O)N[C@@H](CCCCN)C(=O)O` [VGA, nisin VGA] was tested. Which MIC (T. aquaticus) did it give?
A: The MIC was 0.0156 µM (≈ 0.05 µg/mL).

Q: What about the MIC (T. brockianus) of the same compound?
A: The MIC was 0.125 µM (≈ 0.401 µg/mL).

Q: What about the MIC (T. oshimai) of the same compound?
A: Its MIC is 0.0156 µM (≈ 0.05 µg/mL).

Q: And the MIC (T. rehai)?
A: The MIC was 0.125 µM (≈ 0.401 µg/mL).

Q: What about the MIC (T. scotoductus SE-1) of the same compound?
A: The MIC was 0.125 µM (≈ 0.401 µg/mL).

Q: What about the MIC (T. thermophilus HB27) of the same compound?
A: Its MIC is 0.0312 µM (≈ 0.1 µg/mL).

Q: And the “% of wild type” value (Thermus scotoductus SE-1)?
A: Its value is 127* (0.022) %.

Q: And the “% difference” value [1]?
A: Its value is 169* (0.0002) %.

Q: And the “zone of inhibition (area of the zone of inhibition minus the area of the spot)” value (L. lactis HP)?
A: Its value is 362.16 ± 6.77 mm2.

Q: What about the “zone of inhibition (area of the zone of inhibition minus the area of the spot)” value (S. aureus RF122) of the same compound?
A: Its value is 138.17 ± 8.12 mm2.

Q: What about the “zone of inhibition (area of the zone of inhibition minus the area of the spot)” value (L. lactis MG1363) of the same compound?
A: The value was 230.92 ± 4.04 mm2.

Q: What about the “zone of inhibition (area of the zone of inhibition minus the area of the spot)” value (S. agalactiae ATCC13813) of the same compound?
A: Its value is 234.96 ± 25.45 mm2.
